# Reference: the supplement of paper PMC10307832
# Columns and labels:
# Assay in all cases: relative viability (nuclei count vs DMSO), 5 days (fraction); higher = more cells survive
# EKVX = tested on: EKVX
# Method in brief: (§1)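 The day after seeding in 1536-well plates, lung cancer cell lines were treated by pin tool with a single drug, or with a fixed anchor-drug dose together with five library-drug doses (not always all listed) in √10 steps. After 5 days, a combined fix-and-stain solution (final 0.05% Triton X-100, 1% formaldehyde, 1 ug/ml Hoechst) was added. Nuclei counted on 4× images gave relative viability as treated counts over vehicle counts, reported as the median of duplicate plates.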
# LCLC-97TM1 = tested on: LCLC-97TM1
# Method in brief: as §1
# NCI-H1437 = tested on: NCI-H1437
# Method in brief: as §1
# NCI-H1650 = tested on: NCI-H1650
# Method in brief: as §1
# NCI-H1666 = tested on: NCI-H1666
# Method in brief: as §1
# NCI-H1792 = tested on: NCI-H1792
# Method in brief: as §1
# NCI-H1915 = tested on: NCI-H1915
# Method in brief: as §1
# NCI-H1975 = tested on: NCI-H1975
# Method in brief: as §1
# NCI-H2342 = tested on: NCI-H2342
# Method in brief: as §1
# NCI-H23 = tested on: NCI-H23
# Method in brief: as §1
# NCI-H322M = tested on: NCI-H322M
# Method in brief: as §1
# NCI-H358 = tested on: NCI-H358
# Method in brief: as §1
# NCI-H441 = tested on: NCI-H441
# Method in brief: as §1
# NCI-H460 = tested on: NCI-H460
# Method in brief: as §1
# NCI-H520 = tested on: NCI-H520
# Method in brief: as §1
# NCI-H522 = tested on: NCI-H522
# Method in brief: as §1
# NCI-H647 = tested on: NCI-H647
# Method in brief: as §1
# NCI-H661 = tested on: NCI-H661
# Method in brief: as §1
# NCI-H727 = tested on: NCI-H727
# Method in brief: as §1
# NCI-H838 = tested on: NCI-H838
# Method in brief: as §1
# PC-3 [JPC-3] = tested on: PC-3 [JPC-3]
# Method in brief: as §1
# SK-LU-1 = tested on: SK-LU-1
# Method in brief: as §1
structure (smiles),measurement,setting,value
CCNC(=O)c1noc(-c2cc(C(C)C)c(O)cc2O)c1-c1ccc(CN2CCOCC2)cc1 [Luminespib] + CC(=O)c1c(C)c2cnc(Nc3ccc(N4CCNCC4)cn3)nc2n(C2CCCC2)c1=O [Palbociclib] (partner 0.5 µM),relative viability,EKVX; first compound 0.002 µM,0.431
same,relative viability,EKVX; first compound 0.006325 µM,0.364
same,relative viability,EKVX; first compound 0.02 µM,0.184
same,relative viability,EKVX; first compound 0.06325 µM,0.342
same,relative viability,EKVX; first compound 0.2 µM,0.138
same,relative viability,LCLC-97TM1; first compound 0.002 µM,0.214
same,relative viability,LCLC-97TM1; first compound 0.006325 µM,0.227
same,relative viability,LCLC-97TM1; first compound 0.06325 µM,0.248
same,relative viability,LCLC-97TM1; first compound 0.2 µM,0.205
same,relative viability,NCI-H1437; first compound 0.002 µM,0.34
same,relative viability,NCI-H1437; first compound 0.006325 µM,0.306
same,relative viability,NCI-H1437; first compound 0.02 µM,0.309
same,relative viability,NCI-H1437; first compound 0.06325 µM,0.273
same,relative viability,NCI-H1437; first compound 0.2 µM,0.22
same,relative viability,NCI-H1650; first compound 0.002 µM,0.305
same,relative viability,NCI-H1650; first compound 0.006325 µM,0.302
same,relative viability,NCI-H1650; first compound 0.02 µM,0.168
same,relative viability,NCI-H1650; first compound 0.06325 µM,0.106
same,relative viability,NCI-H1650; first compound 0.2 µM,0.127
same,relative viability,NCI-H1666; first compound 0.002 µM,0.647
same,relative viability,NCI-H1666; first compound 0.006325 µM,0.67
same,relative viability,NCI-H1666; first compound 0.02 µM,0.673
same,relative viability,NCI-H1666; first compound 0.06325 µM,0.705
same,relative viability,NCI-H1666; first compound 0.2 µM,0.655
same,relative viability,NCI-H1792; first compound 0.002 µM,0.691
same,relative viability,NCI-H1792; first compound 0.006325 µM,0.655
same,relative viability,NCI-H1792; first compound 0.02 µM,0.622
same,relative viability,NCI-H1792; first compound 0.06325 µM,0.316
same,relative viability,NCI-H1792; first compound 0.2 µM,0.278
same,relative viability,NCI-H1915; first compound 0.002 µM,0.562
same,relative viability,NCI-H1915; first compound 0.006325 µM,0.507
same,relative viability,NCI-H1915; first compound 0.02 µM,0.478
same,relative viability,NCI-H1915; first compound 0.06325 µM,0.318
same,relative viability,NCI-H1915; first compound 0.2 µM,0.24
same,relative viability,NCI-H1975; first compound 0.002 µM,0.614
same,relative viability,NCI-H1975; first compound 0.006325 µM,0.469
same,relative viability,NCI-H1975; first compound 0.02 µM,0.363
same,relative viability,NCI-H1975; first compound 0.06325 µM,0.103
same,relative viability,NCI-H1975; first compound 0.2 µM,0.122
same,relative viability,NCI-H2342; first compound 0.002 µM,0.527
same,relative viability,NCI-H2342; first compound 0.006325 µM,0.527
same,relative viability,NCI-H2342; first compound 0.02 µM,0.438
same,relative viability,NCI-H2342; first compound 0.06325 µM,0.526
same,relative viability,NCI-H2342; first compound 0.2 µM,0.409
same,relative viability,NCI-H23; first compound 0.002 µM,0.567
same,relative viability,NCI-H23; first compound 0.006325 µM,0.582
same,relative viability,NCI-H23; first compound 0.02 µM,0.376
same,relative viability,NCI-H23; first compound 0.06325 µM,0.154
same,relative viability,NCI-H23; first compound 0.2 µM,0.14
same,relative viability,NCI-H322M; first compound 0.002 µM,0.406
same,relative viability,NCI-H322M; first compound 0.006325 µM,0.471
same,relative viability,NCI-H322M; first compound 0.02 µM,0.448
same,relative viability,NCI-H322M; first compound 0.06325 µM,0.427
same,relative viability,NCI-H322M; first compound 0.2 µM,0.382
same,relative viability,NCI-H358; first compound 0.002 µM,0.135
same,relative viability,NCI-H358; first compound 0.006325 µM,0.132
same,relative viability,NCI-H358; first compound 0.02 µM,0.102
same,relative viability,NCI-H358; first compound 0.06325 µM,0.0751
same,relative viability,NCI-H358; first compound 0.2 µM,0.0736
same,relative viability,NCI-H441; first compound 0.002 µM,0.243
same,relative viability,NCI-H441; first compound 0.006325 µM,0.215
same,relative viability,NCI-H441; first compound 0.02 µM,0.143
same,relative viability,NCI-H441; first compound 0.06325 µM,0.102
same,relative viability,NCI-H441; first compound 0.2 µM,0.1
same,relative viability,NCI-H460; first compound 0.002 µM,0.288
same,relative viability,NCI-H460; first compound 0.006325 µM,0.126
same,relative viability,NCI-H460; first compound 0.02 µM,0.0359
same,relative viability,NCI-H460; first compound 0.06325 µM,0.0096
same,relative viability,NCI-H460; first compound 0.2 µM,0.0106
same,relative viability,NCI-H520; first compound 0.002 µM,0.301
same,relative viability,NCI-H520; first compound 0.006325 µM,0.213
same,relative viability,NCI-H520; first compound 0.02 µM,0.176
same,relative viability,NCI-H520; first compound 0.06325 µM,0.121
same,relative viability,NCI-H520; first compound 0.2 µM,0.135
same,relative viability,NCI-H522; first compound 0.002 µM,0.848
same,relative viability,NCI-H522; first compound 0.006325 µM,0.937
same,relative viability,NCI-H522; first compound 0.02 µM,0.764
same,relative viability,NCI-H522; first compound 0.06325 µM,0.861
same,relative viability,NCI-H522; first compound 0.2 µM,0.411
same,relative viability,NCI-H647; first compound 0.002 µM,0.442
same,relative viability,NCI-H647; first compound 0.006325 µM,0.396
same,relative viability,NCI-H647; first compound 0.02 µM,0.207
same,relative viability,NCI-H647; first compound 0.06325 µM,0.0721
same,relative viability,NCI-H647; first compound 0.2 µM,0.0558
same,relative viability,NCI-H661; first compound 0.002 µM,0.427
same,relative viability,NCI-H661; first compound 0.006325 µM,0.396
same,relative viability,NCI-H661; first compound 0.02 µM,0.315
same,relative viability,NCI-H661; first compound 0.06325 µM,0.309
same,relative viability,NCI-H661; first compound 0.2 µM,0.322
same,relative viability,NCI-H727; first compound 0.002 µM,0.668
same,relative viability,NCI-H727; first compound 0.006325 µM,0.665
same,relative viability,NCI-H727; first compound 0.02 µM,0.631
same,relative viability,NCI-H727; first compound 0.06325 µM,0.45
same,relative viability,NCI-H727; first compound 0.2 µM,0.424
same,relative viability,NCI-H838; first compound 0.002 µM,0.233
same,relative viability,NCI-H838; first compound 0.006325 µM,0.252
same,relative viability,NCI-H838; first compound 0.02 µM,0.16
same,relative viability,NCI-H838; first compound 0.06325 µM,0.14
same,relative viability,NCI-H838; first compound 0.2 µM,0.105
same,relative viability,PC-3 [JPC-3]; first compound 0.002 µM,0.558
same,relative viability,PC-3 [JPC-3]; first compound 0.006325 µM,0.544
same,relative viability,PC-3 [JPC-3]; first compound 0.02 µM,0.518
same,relative viability,PC-3 [JPC-3]; first compound 0.06325 µM,0.473
same,relative viability,PC-3 [JPC-3]; first compound 0.2 µM,0.436
same,relative viability,SK-LU-1; first compound 0.002 µM,0.456
same,relative viability,SK-LU-1; first compound 0.006325 µM,0.318
same,relative viability,SK-LU-1; first compound 0.02 µM,0.294
same,relative viability,SK-LU-1; first compound 0.06325 µM,0.186
same,relative viability,SK-LU-1; first compound 0.2 µM,0.194
